Pest or weed control and melting point data for 37 compounds are collected here from patent US8513462B2, “Pesticides and uses thereof” (Dow AgroSciences LLC, priority 2007, dated 2013).

For series [1], the system named is cotton aphid (Aphis gossypii). The series can be described thus: Insecticidal test for cotton aphid in foliar spray assay. It counts as in vivo. To be noted: 72 h, foliar spray on squash, Corrected % Control (Abbott) after 3 days, read-out: Rating against cotton aphid on squash (foliar spray). The procedure:
(§1) The compounds identified in the foregoing examples were tested against cotton aphid using procedures described hereinafter. Insecticidal Test for Cotton Aphid (Aphis gossypii) in Foliar Spray Assay Squash seedlings with fully expanded cotyledon leaves were trimmed to one cotyledon per plant and infested with cotton aphid (wingless adults and nymphs) 1 day prior to chemical application. Each plant was examined before chemical application to ensure uniform infestation (ca. 30-70 aphids per plant). Compounds (2 mg) were dissolved in 2 ml of acetone:methanol (1:1) solvent, forming stock solutions of 1000 ppm. The stock solutions were diluted 5× with 0.025% Tween 20 in H2O to obtain a solution at 200 ppm. A hand-held Devilbiss aspirator type sprayer was used to apply the spray solutions until runoff to both sides of the squash cotyledon leaves. Four plants (4 replications) were used for each compound. Reference plants (solvent check) were sprayed with the diluent only. Treated plants were held in a holding room for 3 days at approximately 23° C. and 40% RH before the number of live aphids on each plant was recorded. Insecticidal activity was measured by Corrected % Control using Abbott's correction formula and presented in Table 1-Activity: Corrected % Control=100*(X−Y)/X • where X=No. of live aphids on solvent check plants • Y=No. of live aphids on treated plants Results are shown in Table 7. Insecticidal Test for Green Peach Aphid (Myzus persicae) in Foliar Spray Assay

Series [2] deals with green peach aphid (Myzus persicae). As to the kind of experiment: Insecticidal test for green peach aphid in foliar spray assay. It counts as in vivo. Conditions: 72 h, foliar spray on cabbage, Corrected % Control (Abbott) after three days, read-out: Rating against green peach aphid on cabbage (foliar spray). The procedure:
as §1, with “Squash” for “The compounds identified in the foregoing examples were tested against cotton aphid using procedures described hereinafter. Insecticidal Test for Cotton Aphid (Aphis gossypii) in Foliar Spray Assay Squash”, “Assay Cabbage seedlings grown in 3-inch pots, with 2-3 small (3-5 cm) true leaves, were used as test substrate. The seedlings were infested with 20-50 green peach aphids (wingless adult and nymph) 1-2 days prior to chemical application. Four seedlings were used for each treatment. Compounds (2 mg) were dissolved in 2 ml of acetone:methanol (1:1) solvent, forming stock solutions of 1000 ppm. The stock solutions were diluted 5× with 0.025% Tween 20 in H2O to obtain a solution at 200 ppm. A hand-held Devilbiss aspirator sprayer was used for spraying a solution to both sides of cabbage leaves until runoff. Reference plants (solvent check) were sprayed with the diluent only. Treated plants were held in a holding room for three days at approximately 23° C. and 40% RH prior to grading. Evaluation was conducted by counting the number of live aphids per plant under a microscope. Insecticidal activity was measured by using Abbott's correction formula: Corrected % Control=100*(X−Y)/X • where X=No. of live aphids on solvent check plants • Y=No. of live aphids on treated plants” for “Assay”

What is called melting point is the temperature of the solid-liquid transition.

Each structure is given as a SMILES string.

In the case of `CC(c1ccc(C(F)(F)F)nc1)S(C)(=O)=Nc1ccc(F)cn1` (stereo not shown) [Compound 1, 3-[1-ethyl(N-(2-(5-fluoro)pyridine)-sulfoximinyl)(methyl)]-6-trifluoromethylpyridine], the pest or weed control at 200 ppm in series [1] and in series [2] was 80 to 100% each time. In the case of `CC(c1ccc(C(F)(F)F)nc1)S(C)(=O)=Nc1ccc(Cl)cn1` (stereo not shown) [Compound 2, 3-[1-ethyl(N-(2-(5-chloro)pyridine)-sulfoximinyl)(methyl)]-6-trifluoromethylpyridine], the pest or weed control at 200 ppm in series [1] and in series [2] was 80 to 100% in each case. Regarding `CC(c1ccc(C(F)(F)F)nc1)S(C)(=O)=Nc1ccccn1` (stereo not shown) [Compound 4, 3-[1-ethyl(N-(2-pyridine)-sulfoximinyl)(methyl)]-6-trifluoromethylpyridine], the pest or weed control at 200 ppm was 80 to 100% in series [1] and below 80% in series [2]. Consider `CC(c1ccc(C(F)(F)F)nc1)S(C)(=O)=Nc1ncccn1` (stereo not shown) [Compound 5], for which the pest or weed control at 200 ppm in series [1] is below 80%. For the compound `CC(c1ccc(C(F)(F)F)nc1)S(C)(=O)=Nc1nccs1` (stereo not shown) [Compound 6], the pest or weed control at 200 ppm in series [1] and in series [2] was 80 to 100% throughout.

Take `CC(c1ccc(C(F)(F)F)nc1)S(C)(=O)=Nc1ccc([N+](=O)[O-])cn1` (stereo not shown) [Compound 7]: the pest or weed control at 200 ppm in series [1] and in series [2] was 80 to 100% each time. Take `CC(c1ccc(C(F)(F)F)nc1)S(C)(=O)=Nc1ccncc1` (stereo not shown) [Compound 8]: the pest or weed control at 200 ppm in series [1] and in series [2] was below 80% each time. On to `CC(c1ccc(C(F)(F)F)nc1)S(C)(=O)=Nc1ccc(C(F)(F)F)cn1` (stereo not shown) [Compound 12], for which the pest or weed control at 200 ppm in series [1] was below 80%. Turning to `CC(c1ccc(C(F)(F)F)nc1)S(C)(=O)=Nc1nc(-c2ccccc2)cs1` (stereo not shown) [Compound 15], the melting point fell in the range of 88 to 93 °C. Further, the pest or weed control at 200 ppm in series [2] was in the range of 80 to 100%.

For `CC(c1ccc(C(F)(F)F)nc1)S(C)(=O)=Nc1nc(-c2ccc(F)cc2)cs1` (stereo not shown) [Compound 27, 5-{1-[methyl(4-(4-fluorophenyl)-1,3-thiazol-2-yl)sulfonimidoyl]ethyl}-2-(trifluoromethyl)pyridine], the melting point lay within 89 to 94 °C. For the same compound, in series [2], the pest or weed control at 200 ppm lay within 80 to 100%. Regarding `CC(c1ccc(C(F)(F)F)nc1)S(C)(=O)=Nc1nc(C(C)(C)C)cs1` (stereo not shown) [Compound 29], the melting point lay in the range of 144 to 148 °C. Further, the pest or weed control at 200 ppm in series [2] was in the range of 80 to 100%. In the case of `CC(c1ccc(C(F)(F)F)nc1)S(C)(=O)=Nc1nc(C(F)(F)C(F)(F)F)cs1` (stereo not shown) [Compound 30], the melting point is 95 to 100 °C. Moreover, in series [2], the pest or weed control at 200 ppm was 80 to 100%. For `CC(c1ccc(C(F)(F)F)nc1)S(C)(=O)=Nc1nc(C2CC2)cs1` (stereo not shown) [Compound 32], in that order: 102 to 106 °C and below 80%. `CC(c1ccc(C(F)(F)F)nc1)S(C)(=O)=Nc1nc(-c2cccnc2)cs1` (stereo not shown) [Compound 33] had a melting point of 178 to 182 °C. Further, the pest or weed control at 200 ppm in series [2] lay within 80 to 100%. Regarding `CC(c1ccc(C(F)(F)F)nc1)S(C)(=O)=Nc1nc(-c2ccccn2)cs1` (stereo not shown) [Compound 35], the melting point is 134 to 141 °C. Also, the pest or weed control at 200 ppm in series [2] was in the range of 80 to 100%. In the case of `CC(c1ccc(C(F)(F)F)nc1)S(C)(=O)=Nc1nc(-c2ccc(Br)s2)cs1` (stereo not shown) [Compound 37], the melting point was in the range of 160 to 165 °C. The pest or weed control at 200 ppm in series [2] lay within 80 to 100%. The compound `CC(c1ccc(C(F)(F)F)nc1)S(C)(=O)=Nc1nc(-c2ccsc2)cs1` (stereo not shown) [Compound 38] came in with a melting point of 168 to 173 °C. Further, in series [2], the pest or weed control at 200 ppm lay in the range of 80 to 100%. In the case of `CC(c1ccc(C(F)(F)F)nc1)S(C)(=O)=Nc1nc(-c2nccs2)cs1` (stereo not shown) [Compound 39], the melting point fell in the range of 163 to 167 °C. In series [2], the pest or weed control at 200 ppm lay in the range of 80 to 100%. For `CC(c1ccc(C(F)(F)F)nc1)S(C)(=O)=Nc1nc(-c2ccc(Cl)s2)cs1` (stereo not shown) [Compound 41], in that order: 124 to 128 °C and 80 to 100%.

On to `CC(c1ccc(C(F)(F)F)nc1)S(C)(=O)=Nc1nc(-c2ccc(C#N)cc2)cs1` (stereo not shown) [Compound 43], for which the melting point fell in the range of 78 to 80 °C. Also, the pest or weed control at 200 ppm in series [2] lay within 80 to 100%.

As to `COc1cccc(-c2csc(N=S(C)(=O)C(C)c3ccc(C(F)(F)F)nc3)n2)c1` (stereo not shown) [Compound 44], the melting point lay in the range of 107 to 110 °C. The pest or weed control at 200 ppm in series [2] was 80 to 100%. On to `CC(c1ccc(C(F)(F)F)nc1)S(C)(=O)=Nc1nc(-c2ccc(C(F)(F)F)cc2)cs1` (stereo not shown) [Compound 45], for which the melting point lay in the range of 124 to 127 °C. For the same compound, the pest or weed control at 200 ppm in series [2] was in the range of 80 to 100%. Turning to `CCOc1ccc(-c2csc(N=S(C)(=O)C(C)c3ccc(C(F)(F)F)nc3)n2)cc1` (stereo not shown) [Compound 46], the melting point fell in the range of 105 to 110 °C. Moreover, the pest or weed control at 200 ppm in series [2] fell in the range of 80 to 100%.

Compound `COc1ccc(-c2csc(N=S(C)(=O)C(C)c3ccc(C(F)(F)F)nc3)n2)cc1OC` (stereo not shown) [Compound 48] gave a melting point of 153 to 160 °C. In addition, the pest or weed control at 200 ppm in series [2] lay in the range of 80 to 100%. For `COc1ccccc1-c1csc(N=S(C)(=O)C(C)c2ccc(C(F)(F)F)nc2)n1` (stereo not shown) [Compound 51], in that order: 72 to 77 °C and 80 to 100%. Take `CC(c1ccc(C(F)(F)F)nc1)S(C)(=O)=Nc1nc(-c2ccc(OC(F)(F)F)cc2)cs1` (stereo not shown) [Compound 52]: the melting point fell in the range of 90 to 95 °C. For the same compound, the pest or weed control at 200 ppm in series [2] was in the range of 80 to 100%. In turn, `COc1ccc(-c2csc(N=S(C)(=O)Cc3ccc(C(F)(F)F)nc3)n2)cc1` (stereo not shown) [Compound 54] displayed a melting point of 158 to 161 °C. Moreover, the pest or weed control at 200 ppm in series [2] was below 80%. In turn, `CS(=O)(Cc1ccc(C(F)(F)F)nc1)=Nc1nc(C(F)(F)F)cs1` (stereo not shown) [Compound 55] showed a melting point of 126 to 128 °C. In addition, the pest or weed control at 200 ppm in series [2] is 80 to 100%. For `CCc1csc(N=S(C)(=O)Cc2ccc(C(F)(F)F)nc2)n1` (stereo not shown) [Compound 56], in that order: 114 to 116 °C and 80 to 100%. In turn, `CS(=O)(Cc1ccc(Cl)nc1)=Nc1nc(C(F)(F)F)cs1` (stereo not shown) [Compound 58] had a melting point of 122 to 125 °C. Besides, the pest or weed control at 200 ppm in series [2] lay in the range of 80 to 100%. For `CCc1csc(N=S(C)(=O)Cc2ccc(Cl)nc2)n1` (stereo not shown) [Compound 59], in that order: 114 to 116 °C and 80 to 100%. `CC(c1ccc(C(F)(F)F)nc1)S(C)(=O)=Nc1nc(-c2ccccc2)co1` (stereo not shown) [Compound 74]: in series [2], the pest or weed control at 200 ppm is below 80%. As to `CC(c1ccc(C(F)(F)F)nc1)S(C)(=O)=Nc1nc(-c2ccc(Br)cc2)co1` (stereo not shown) [Compound 75], the melting point was in the range of 134 to 137 °C. Moreover, in series [2], the pest or weed control at 200 ppm was below 80%. Regarding `CC(C)(C)c1csc(N=S2(=O)CCCC2c2ccc(Cl)nc2)n1` (stereo not shown) [Compound 76], the melting point was 77 to 81 °C. Further, in series [2], the pest or weed control at 200 ppm was in the range of 80 to 100%.

Compound `CCc1csc(N=S2(=O)CCCC2c2ccc(Cl)nc2)n1` (stereo not shown) [Compound 77] came in with a melting point of 67 to 71 °C. The pest or weed control at 200 ppm in series [2] fell in the range of 80 to 100%. Take `COc1ccc(-c2csc(N=S3(=O)CCCC3c3ccc(Cl)nc3)n2)cc1` (stereo not shown) [Compound 78]: the melting point fell in the range of 88 to 94 °C. Further, the pest or weed control at 200 ppm in series [2] was below 80%.

On to `O=S1(=Nc2nc(C(F)(F)F)cs2)CCCC1c1ccc(Cl)nc1` (stereo not shown) [Compound 79], for which, in series [2], the pest or weed control at 200 ppm was 80 to 100%.
